Measurements published in patent US11377632B2, “Production method for bacterial cells” (IDEMITSU KOSAN CO., LTD., priority 2017, dated 2022).

Tested on: Bacillus subtilis ITB 105 strain (NITE BP-01727)
Assay: Three-stage liquid culture with streptomycin added; colony count (CFU) and abnormal colony morphology on agar
Type: cell-based
Settings: for Appearance (%) of abnormal colonies / CFU / Number of abnormal colonies / Number of normal colonies: third stage, 30 hour
Method: Using a 500 mL Erlenmeyer flask (with a baffle), 100 mL each of liquid medium containing the components of the medium listed in Table 1 was prepared, and then autoclave sterilization was performed. In order to avoid the Maillard reaction, glucose was separately sterilized and mixed aseptically.
The test sections were set as described in Table 2. According to the conditions for each test section, an aqueous solution of filter-sterilized streptomycin was aseptically added to the medium.
One platinum loop was taken from a colony of Bacillus subtilis ITB 105 strain (NITE BP-01727) grown on a common agar medium and inoculated, and then shake culture was performed at 30° C. and 150 rpm (first stage). Eighteen hours later, 1 mL of each culture solution was aliquoted and transferred to a fresh medium, and then shaking culture was performed in the same manner (second stage). After 24 hours, 1 mL of each culture solution was aliquoted and then transferred to a fresh medium, and then shaking culture was performed in the same manner (third stage). The third-stage culture solution was sampled after 30 hours.
The resulting culture solutions were each diluted 1×10^7 folds with sterile water, and 100 μL of the diluted solution was applied to a common agar medium and then cells were cultured overnight at 37° C. The number of colonies that had appeared was determined to calculate CFU. Colonies that had appeared and clearly differed in colony morphology compared with the parent strain on the basis of the criteria in Table 3 were determined as abnormal colonies and the number of the abnormal appearing colonies was determined and then the proportion thereof in the total number of colonies was calculated. As a result, in the three-stage culture, abnormal appearing colonies accounted for about 5% when no antibiotic was added.

[1] = Test section No. 2: streptomycin 5 ppm in first and second stage, none in third
[2] = Test section No. 3: streptomycin 10 ppm in first and second stage, none in third
[3] = Test section No. 4: streptomycin 15 ppm in first and second stage, none in third
[4] = Test section No. 5: streptomycin 20 ppm in first and second stage, none in third
[5] = Test section No. 6: streptomycin 30 ppm in first and second stage, none in third
[6] = Test section No. 7: streptomycin 30 ppm in first, second and third stage
[7] = streptomycin added in all of the first, second and third stages

## [H]/N=C(/N)N[C@H]1[C@H](O)[C@@H](O)[C@H](O[C@@H]2O[C@@H](C)[C@](O)(C=O)[C@H]2O[C@@H]2O[C@@H](CO)[C@H](O)[C@@H](O)[C@@H]2NC)[C@@H](N/C(N)=N\[H])[C@@H]1O [Streptomycin, streptomycin]
[1]
  Appearance (%) of abnormal colonies: 0.0%
  CFU: 8.8e+09 mL⁻¹
  Number of abnormal colonies: 0
  Number of normal colonies: 88
[2]
  Appearance (%) of abnormal colonies: 0.0%
  CFU: 1.09e+10 mL⁻¹
  Number of abnormal colonies: 0
  Number of normal colonies: 109
[3]
  Appearance (%) of abnormal colonies: 0.0%
  CFU: 7e+09 mL⁻¹
  Number of abnormal colonies: 0
  Number of normal colonies: 70
[4]
  Appearance (%) of abnormal colonies: 0.0%
  CFU: 8.2e+09 mL⁻¹
  Number of abnormal colonies: 0
  Number of normal colonies: 82
[5]
  Appearance (%) of abnormal colonies: 0.0%
  CFU: 6.3e+09 mL⁻¹
  Number of abnormal colonies: 0
  Number of normal colonies: 63
[6]
  Appearance (%) of abnormal colonies: 0.0%
  CFU: 4.9e+09 mL⁻¹
  Number of abnormal colonies: 0
  Number of normal colonies: 49
[7]
  Appearance of abnormal colonies: no abnormal colony appeared
  Number of appearing colonies and number of normal appearing colonies: low
Streptomycin added in all of the first, second and third stages, compared with Test section Nos. 2 to 6
  Productivity of bacterial cells: lower than those of Test section Nos. 2 to 6
Streptomycin added in the first and second stages, none in the third stage
  Appearance of abnormal colonies: no appearance of abnormal colonies was observed
